Experimental data: US10959428B2, “Hematophagous arthropod repellent composition” (WOOJUNG BIO INC., priority 2017, dated 2021)

How the values were obtained:
[1] = test system: adult Aedes aegypti; experiment: cage-in-arm test, complete protection time (CPT); type: in vivo; settings: 4 mg
Procedure: For determining the repellency of prepared samples against adults of Aedes aegypti and Aedes albopicus, a cage-in-arm test was carried out as a method for exposure to skin. Namely, on a back of the hand of a rubber glove, a hole with diameter of 5 cm was created, and, onto an exposed back of the testees, various samples prepared by dissolution in 100 μl of ethanol were applied, and then the skin test was carried out. The testees were healthy males between the ages of 21 and 40. The control group was treated with 100 μl of ethanol only. Female adults (5 to 8 day old) of Aedes aegypti or Aedes albopicus (250 to 300 mosquitoes) were added to a cage for growing adult mosquitoes (25×25×25 cm^3), and adapted to the indoor conditions for 12 to 24 hours before starting the test. When the upper arm of the control group is exposed for 1 minute and at least 6 mosquitoes sit on the upper arm or show a bloodsucking behavior, it was determined as sufficient biting pressure, and then the repellency test was carried out. […] The time period between the time point with initial treatment of a material and the time point at which 2 or more mosquitoes continuously sit on the treatment area or show the bloodsucking behavior was defined as complete protection time (CPT). Furthermore, for obtaining the repellency with regard to concentration, exposure was made for a constant time period regardless of the above and the repellency was calculated by using the following formula. Accordingly, the effect was compared among each test samples. All tests were carried out in triplicate. Repellency %=(Number of insects showing bloodsucking behavior in non-treatment group−Number of insects showing bloodsucking behavior in treatment group)/Number of insects showing bloodsucking behavior in non-treatment group)×100 <Tick Repellency>

[2] = test system: adult Aedes albopicus; experiment: cage-in-arm test, repellency and CPT; type: in vivo, Aedes albopictus; settings: for CPT: 4 mg, adult Aedes albopicus
Procedure: For determining the repellency of prepared samples against adults of Aedes aegypti and Aedes albopicus, a cage-in-arm test was carried out as a method for exposure to skin. Namely, on a back of the hand of a rubber glove, a hole with diameter of 5 cm was created, and, onto an exposed back of the testees, various samples prepared by dissolution in 100 μl of ethanol were applied, and then the skin test was carried out. The testees were healthy males between the ages of 21 and 40. The control group was treated with 100 μl of ethanol only. Female adults (5 to 8 day old) of Aedes aegypti or Aedes albopicus (250 to 300 mosquitoes) were added to a cage for growing adult mosquitoes (25×25×25 cm^3), and adapted to the indoor conditions for 12 to 24 hours before starting the test. When the upper arm of the control group is exposed for 1 minute and at least 6 mosquitoes sit on the upper arm or show a bloodsucking behavior, it was determined as sufficient biting pressure, and then the repellency test was carried out. With an interval of 30 minutes, by exposing the upper arm, which has been treated with the above composition, for 3 minutes, and, when the adult mosquito sits on the arm for 2 seconds or longer or at least two mosquitoes showing the behavior of mouth injection to skin or direct bloodsucking are found from consecutive tests, the test was stopped. The time period between the time point with initial treatment of a material and the time point at which 2 or more mosquitoes continuously sit on the treatment area or show the bloodsucking behavior was defined as complete protection time (CPT). Furthermore, for obtaining the repellency with regard to concentration, exposure was made for a constant time period regardless of the above and the repellency was calculated by using the following formula. Accordingly, the effect was compared among each test samples. All tests were carried out in triplicate. Repellency %=(Number of insects showing bloodsucking behavior in non-treatment group−Number of insects showing bloodsucking behavior in treatment group)/Number of insects showing bloodsucking behavior in non-treatment group)×100 <Tick Repellency>
For reference, comparison of the mosquito repellency was made by using clove oil as a natural positive control group and DEET as a synthetic positive control group.
To determine the repellency of plant essential oil alone against adult Aedes albopicus and nymphs of Haemaphysalis longicornis, the cage-in-arm test and finger-tip method were carried out, in the same manner as Examples 1-2 and 1-3, with each of 16 kinds of plant essential oil of Table 4.

COc1cc(C=O)ccc1OCc1ccccc1 [4-Benzyloxy-3-methoxybenzaldehyde, 4-benzyloxy-3-methoxybenzaldehyde]
CPT ([1]; adult Aedes aegypti): 22 min

CCN(CC)C(=O)c1cccc(C)c1 [DEET, N,N-diethyl-m-toluamide]
CPT ([1]; adult Aedes aegypti): 90 min | CPT ([1]; adult Aedes aegypti (Table 6)): 90 min | Repellency (mean ± SE, %) ([2]; 0.03 mg/cm^2, 10 minutes): 77 ± 5.8% | Repellency (mean ± SE, %) ([2]; 0.03 mg/cm^2, 30 minutes): 67 ± 3.3% | Repellency (mean ± SE, %) ([2]; 0.03 mg/cm^2, 60 minutes): 69 ± 6.9% | Repellency (mean ± SE, %) ([2]; 0.03 mg/cm^2, 90 minutes): 19 ± 5.2% | Repellency (mean ± SE, %) ([2]; 0.10 mg/cm^2, 10 minutes): 100 ± 0% | Repellency (mean ± SE, %) ([2]; 0.10 mg/cm^2, 30 minutes): 96 ± 2.6% | Repellency (mean ± SE, %) ([2]; 0.10 mg/cm^2, 60 minutes): 86 ± 4.2% | Repellency (mean ± SE, %) ([2]; 0.10 mg/cm^2, 90 minutes): 83 ± 4.3% | Repellency (mean ± SE, %) ([2]; 0.10 mg/cm^2, 120 minutes): 82 ± 9.5% | Repellency (mean ± SE, %) ([2]; 0.10 mg/cm^2, 150 minutes): 57 ± 5.2% | Repellency (mean ± SE, %) ([2]; 0.10 mg/cm^2, 180 minutes): 27 ± 3.8% | Repellency (mean ± SE, %) ([2]; 0.20 mg/cm^2, 10 minutes): 100 ± 0% | Repellency (mean ± SE, %) ([2]; 0.20 mg/cm^2, 30 minutes): 100 ± 0% | Repellency (mean ± SE, %) ([2]; 0.20 mg/cm^2, 60 minutes): 100 ± 0% | Repellency (mean ± SE, %) ([2]; 0.20 mg/cm^2, 90 minutes): 100 ± 0% | Repellency (mean ± SE, %) ([2]; 0.20 mg/cm^2, 120 minutes): 95 ± 3.3% | Repellency (mean ± SE, %) ([2]; 0.20 mg/cm^2, 150 minutes): 96 ± 1.2% | Repellency (mean ± SE, %) ([2]; 0.20 mg/cm^2, 180 minutes): 85 ± 3.0% | Repellency (mean ± SE, %) ([2]; 0.25 mg/cm^2, 10 minutes): 100 ± 0% | Repellency (mean ± SE, %) ([2]; 0.25 mg/cm^2, 30 minutes): 100 ± 0% | Repellency (mean ± SE, %) ([2]; 0.25 mg/cm^2, 60 minutes): 100 ± 0% | Repellency (mean ± SE, %) ([2]; 0.25 mg/cm^2, 90 minutes): 100 ± 0% | Repellency (mean ± SE, %) ([2]; 0.25 mg/cm^2, 120 minutes): 100 ± 0% | Repellency (mean ± SE, %) ([2]; 0.25 mg/cm^2, 150 minutes): 100 ± 0% | Repellency (mean ± SE, %) ([2]; 0.25 mg/cm^2, 180 minutes): 84 ± 4.3% | CPT [2]: 90 min

C=CCc1ccc(O)c(OC)c1 [Eugenol (clove), Eugenol]
CPT [2]: 10 min
